Values quoted from earlier work as cited in US20070190090A1, “SIALAGOGUE BASED ORAL CARE PRODUCTS” (WhiteHill Oral Technologies, Inc., priority 2006, published 2007).

Assays:
[1] = test system: certain microorganisms (Gram positive and Gram negative bacteria); details: toxicity varying for Gram positive and Gram negative bacteria
[2] = mice, orally

For C/C=C/C=C\CC/C=C/C(=O)NCC(C)C [affinin, N-isobutyl-2E,6Z,8E-decatrienamide], the “toxicity to certain microorganisms” value [1] is listed as “toxic”, the analgesic effect ([2]; doses from 2.5 to 10.0 mg/kg) is listed as “analgesic effect” and the deaths ([2]; highest dose (10.0 mg/kg)) is listed as “two out of five”. The “effect on normal motor activity” value ([2]; highest dose (10.0 mg/kg)) was “severe depression of normal motor activity”.
